Assays:
[1] = molecular target: T1, human TLR8 (Homo sapiens, UniProt Q9NR97); assay: HEK-Blue human TLR8 cells NF-κB SEAP reporter assay; type: cell-based; details: stimulation for 20 hours, Quanti Blue 640 nm
T1 construct: host or cells: HEK-Blue human TLR8 cells (HEK293-derived reporter line)
T1 sequence (Q9NR97 27-1041): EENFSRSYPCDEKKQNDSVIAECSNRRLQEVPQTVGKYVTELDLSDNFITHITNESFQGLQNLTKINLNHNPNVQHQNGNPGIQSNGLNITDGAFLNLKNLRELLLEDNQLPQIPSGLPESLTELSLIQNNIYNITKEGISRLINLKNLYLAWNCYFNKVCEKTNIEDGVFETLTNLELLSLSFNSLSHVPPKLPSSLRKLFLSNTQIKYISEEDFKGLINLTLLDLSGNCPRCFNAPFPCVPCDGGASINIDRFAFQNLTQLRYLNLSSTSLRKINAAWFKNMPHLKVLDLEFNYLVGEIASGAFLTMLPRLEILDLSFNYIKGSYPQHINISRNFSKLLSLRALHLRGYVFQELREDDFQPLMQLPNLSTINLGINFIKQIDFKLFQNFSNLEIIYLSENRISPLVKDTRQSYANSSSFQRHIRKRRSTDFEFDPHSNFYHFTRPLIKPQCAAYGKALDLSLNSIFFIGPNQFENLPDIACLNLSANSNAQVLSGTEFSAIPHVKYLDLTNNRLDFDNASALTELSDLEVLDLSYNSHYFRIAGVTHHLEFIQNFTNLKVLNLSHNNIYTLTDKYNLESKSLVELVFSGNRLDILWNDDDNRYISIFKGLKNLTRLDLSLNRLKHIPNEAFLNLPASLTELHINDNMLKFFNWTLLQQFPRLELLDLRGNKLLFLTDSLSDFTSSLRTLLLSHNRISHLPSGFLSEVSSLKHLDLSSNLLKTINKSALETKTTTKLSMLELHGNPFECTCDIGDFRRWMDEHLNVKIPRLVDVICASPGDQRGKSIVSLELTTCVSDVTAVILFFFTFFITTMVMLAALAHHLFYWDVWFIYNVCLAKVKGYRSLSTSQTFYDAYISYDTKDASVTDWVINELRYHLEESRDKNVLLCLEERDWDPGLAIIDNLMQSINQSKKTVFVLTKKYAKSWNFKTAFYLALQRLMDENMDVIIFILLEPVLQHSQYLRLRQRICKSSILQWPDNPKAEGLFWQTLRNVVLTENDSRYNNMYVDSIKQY
From the text: (§1) For TLR8 and TLR7 activity testing, HEK-Blue human TLR8 or TLR7 cells (Invivogen, San Diego, Calif., USA) are used, respectively. These cells are designed for studying the stimulation of human TLR8 or TLR7 by monitoring the activation of NF-κB. A SEAP (secreted embryonic alkaline phosphatase) reporter gene is placed under the control of the IFN-b minimal promoter fused to five NF-κB and AP-1-binding sites. Therefore the reporter expression is regulated by the NF-κB promoter upon stimulation of human TLR8 or TLR7 for 20 hours. The cell culture supernatant SEAP reporter activity was determined using Quanti Blue kit (Invivogen, San Diego, Calif., USA) at a wavelength of 640 nm, a detection medium that turns purple/blue in the presence of alkaline phosphatase. EC50 values were determined using Activity Base analysis (ID Business Solution, Limited).

[2] = molecular target: T2, human TLR7 (Homo sapiens, UniProt Q9NYK1); assay: HEK-Blue human TLR7 cells NF-κB SEAP reporter assay; type: cell-based; details: stimulation for 20 hours, Quanti Blue 640 nm
T2 construct: host or cells: HEK-Blue human TLR7 cells (HEK293-derived reporter line)
T2 sequence (Q9NYK1 27-1049): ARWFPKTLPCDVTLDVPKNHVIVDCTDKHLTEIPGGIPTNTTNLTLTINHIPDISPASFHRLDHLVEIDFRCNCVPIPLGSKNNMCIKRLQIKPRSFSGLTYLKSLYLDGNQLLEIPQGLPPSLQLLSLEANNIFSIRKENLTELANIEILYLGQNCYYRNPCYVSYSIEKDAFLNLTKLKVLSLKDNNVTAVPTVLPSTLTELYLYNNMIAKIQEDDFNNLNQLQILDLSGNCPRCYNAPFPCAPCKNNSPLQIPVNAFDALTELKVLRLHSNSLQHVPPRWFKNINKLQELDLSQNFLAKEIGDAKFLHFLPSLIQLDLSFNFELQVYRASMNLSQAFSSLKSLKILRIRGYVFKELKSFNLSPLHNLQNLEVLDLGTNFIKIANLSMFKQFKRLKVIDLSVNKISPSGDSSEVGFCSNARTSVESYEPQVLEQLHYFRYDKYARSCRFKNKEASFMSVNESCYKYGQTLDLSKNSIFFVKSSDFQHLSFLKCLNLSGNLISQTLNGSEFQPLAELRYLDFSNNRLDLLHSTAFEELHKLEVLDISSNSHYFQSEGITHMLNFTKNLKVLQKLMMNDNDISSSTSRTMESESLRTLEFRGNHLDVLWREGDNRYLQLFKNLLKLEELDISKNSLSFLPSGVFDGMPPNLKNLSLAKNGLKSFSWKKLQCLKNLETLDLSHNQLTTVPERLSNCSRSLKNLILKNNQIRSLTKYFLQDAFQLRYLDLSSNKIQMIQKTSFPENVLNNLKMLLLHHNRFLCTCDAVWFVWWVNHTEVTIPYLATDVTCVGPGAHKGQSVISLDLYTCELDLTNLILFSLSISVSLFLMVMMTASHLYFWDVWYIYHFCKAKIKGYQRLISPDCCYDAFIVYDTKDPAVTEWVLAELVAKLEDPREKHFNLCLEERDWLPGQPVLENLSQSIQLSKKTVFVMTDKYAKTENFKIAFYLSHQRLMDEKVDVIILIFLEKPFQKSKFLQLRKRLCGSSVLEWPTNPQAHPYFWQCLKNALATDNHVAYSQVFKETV
From the text: as §1

Compound | EC50 [1] | EC50 [2]
CCCN(CCC)C(=O)C1=Cc2ccc(C(=O)NCc3nccs3)cc2N=C(N)C1 [Example 12, 2-Amino-N4,N4-dipropyl-N8-(thiazol-2-ylmethyl)-3H-1-benzazepine-4,8-dicarboxamide] | 13 nM | 42000 nM
CCCN(CCC)C(=O)C1=Cc2ccc(C(=O)NC3(c4ccccc4)CCC3)cc2N=C(N)C1 [Example 6, 2-Amino-N8-(1-phenylcyclobutyl)-N4,N4-dipropyl-3H-1-benzazepine-4,8-dicarboxamide] | 7 nM | 13000 nM
CCCN(CCC)C(=O)C1=Cc2ccc(C(=O)NC3CCCN(c4ccccc4)C3)cc2N=C(N)C1 (stereo not shown) [Example 23, 2-Amino-N8-(1-phenyl-3-piperidyl)-N4,N4-dipropyl-3H-1-benzazepine-4,8-dicarboxamide] | 10 nM | > 100000 nM
CCCN(CC1CC1)C(=O)C1=Cc2ccc(C(=O)NC3C[C@H]3c3ccccc3)cc2N=C(N)C1 (stereo partly drawn) [Example 22, 2-Amino-N4-(cyclopropylmethyl)-N8-[(2S)-2-phenylcyclopropyl]-N4-propyl-3H-1-benzazepine-4,8-dicarboxamide] | 5 nM | 14000 nM
CCCN(CCC)C(=O)C1=Cc2ccc(C(=O)NC3CN(c4ccccc4)C3)cc2N=C(N)C1 [Example 3, 2-Amino-N8-(1-phenylazetidin-3-yl)-N4,N4-dipropyl-3H-1-benzazepine-4,8-dicarboxamide] | 4 nM | > 100000 nM
CCCN(CCC)C(=O)C1=Cc2ccc(C(=O)NC3(c4ccccc4)CC3)cc2N=C(N)C1 [Example 5, 2-Amino-N8-(1-phenylcyclopropyl)-N4,N4-dipropyl-3H-1-benzazepine-4,8-dicarboxamide] | 6 nM | > 100000 nM
CCCN(CCC)C(=O)C1=Cc2ccc(C(=O)NCc3ccon3)cc2N=C(N)C1 [Example 8, 2-Amino-N8-(isoxazol-3-ylmethyl)-N4,N4-dipropyl-3H-1-benzazepine-4,8-dicarboxamide] | 12 nM | 40000 nM
CCCN(CCC)C(=O)C1=Cc2ccc(C(=O)NC3CCN(c4ccccc4)C3)cc2N=C(N)C1 (stereo not shown) [Example 24, 2-Amino-N8-(1-phenylpyrrolidin-3-yl)-N4,N4-dipropyl-3H-1-benzazepine-4,8-dicarboxamide] | 19 nM | > 100000 nM
CCCN(CCC)C(=O)C1=Cc2ccc(C(=O)NC3CCCC3)cc2N=C(N)C1 [Example 15, 2-Amino-N8-cyclopentyl-N4,N4-dipropyl-3H-1-benzazepine-4,8-dicarboxamide] | 14 nM | > 100000 nM
CCCN(CCC)C(=O)C1=Cc2ccc(C(=O)NC(c3ccccc3)c3ccccc3)cc2N=C(N)C1 [Example 10, 2-Amino-N8-benzhydryl-N4,N4-dipropyl-3H-1-benzazepine-4,8-dicarboxamide] | 11 nM | > 100000 nM
CCCN(CCC)C(=O)C1=Cc2ccc(C(=O)NCc3ccccc3)cc2N=C(N)C1 [Example 18, 2-Amino-N8-benzyl-N4,N4-dipropyl-3H-1-benzazepine-4,8-dicarboxamide] | 26 nM | 25000 nM
CCCN(CCC)C(=O)C1=Cc2ccc(C(=O)NC3CCN(c4ccccc4)CC3)cc2N=C(N)C1 [Example 2, 2-Amino-N8-(1-phenyl-4-piperidyl)-N4,N4-dipropyl-3H-1-benzazepine-4,8-dicarboxamide] | 2 nM | 10000 nM
CCCN(CCC)C(=O)C1=Cc2ccc(C(=O)NCc3cncs3)cc2N=C(N)C1 [Example 9, 2-Amino-N4,N4-dipropyl-N8-(thiazol-5-ylmethyl)-3H-1-benzazepine-4,8-dicarboxamide] | 24 nM | 52000 nM
CCCN(CCC)C(=O)C1=Cc2ccc(C(=O)NC3CCC3)cc2N=C(N)C1 [Example 17, 2-Amino-N8-cyclobutyl-N4,N4-dipropyl-3H-1-benzazepine-4,8-dicarboxamide] | 25 nM | > 100000 nM
CCCN(CCC)C(=O)C1=Cc2ccc(C(=O)NC(C)(C)c3ccccc3)cc2N=C(N)C1 [Example 13, 2-Amino-N8-(1-methyl-1-phenyl-ethyl)-N4,N4-dipropyl-3H-1-benzazepine-4,8-dicarboxamide] | 11 nM | 14000 nM
CCCN(CCC)C(=O)C1=Cc2ccc(C(=O)NCc3cccnc3)cc2N=C(N)C1 [Example 19, 2-Amino-N4,N4-dipropyl-N8-(3-pyridylmethyl)-3H-1-benzazepine-4,8-dicarboxamide] | 25 nM | 49000 nM
CCCN(CCC)C(=O)C1=Cc2ccc(C(=O)NC3CCC(CNc4ccccc4)CC3)cc2N=C(N)C1 (stereo not shown) [Example 26, 2-Amino-N8-[4-(anilinomethyl)cyclohexyl]-N4,N4-dipropyl-3H-1-benzazepine-4,8-dicarboxamide] | 9 nM | > 100000 nM
CCCN(CCC)C(=O)C1=Cc2ccc(C(=O)N[C@H](C)c3ccccc3)cc2N=C(N)C1 [Example 14, 2-Amino-N8-[(1R)-1-phenylethyl]-N4,N4-dipropyl-3H-1-benzazepine-4,8-dicarboxamide] | 12 nM | 35000 nM
CCCN(CCC)C(=O)C1=Cc2ccc(C(=O)NC3CC(CNc4ccccc4)C3)cc2N=C(N)C1 (stereo not shown) [Example 27, 2-Amino-N8-[3-(anilinomethyl)cyclobutyl]-N4,N4-dipropyl-3H-1-benzazepine-4,8-dicarboxamide] | 7 nM | > 100000 nM
CCCN(CCC)C(=O)C1=Cc2ccc(C(=O)NC3(c4ccccc4)CCOCC3)cc2N=C(N)C1 [Example 11, 2-Amino-N8-(4-phenyltetrahydropyran-4-yl)-N4,N4-dipropyl-3H-1-benzazepine-4,8-dicarboxamide] | 29 nM | > 100000 nM
CCCN(CCC)C(=O)C1=Cc2ccc(C(=O)N[C@@H](C)c3ccccc3)cc2N=C(N)C1 [Example 7, 2-Amino-N8-[(1S)-1-phenylethyl]-N4,N4-dipropyl-3H-1-benzazepine-4,8-dicarboxamide] | 10 nM | 17000 nM
CCCN(CCC)C(=O)C1=Cc2ccc(C(=O)NCCCc3cccnc3)cc2N=C(N)C1 [Example 21, 2-Amino-N4,N4-dipropyl-N8-[3-(3-pyridyl)propyl]-3H-1-benzazepine-4,8-dicarboxamide] | 29 nM | > 100000 nM
CCCN(CCC)C(=O)C1=Cc2ccc(C(=O)NCCc3cccnc3)cc2N=C(N)C1 [Example 20, 2-Amino-N4,N4-dipropyl-N8-[2-(3-pyridyl)ethyl]-3H-1-benzazepine-4,8-dicarboxamide] | 30 nM | > 100000 nM

Reference: patent US10544102B2, “Benzazepine dicarboxamide compounds with secondary amide function” (Hoffmann-La Roche Inc., priority 2017, dated 2020)
